Source: the CheMixHub viscosity set

Experiment: xn = mol fraction of the nth substance listed

CC(=O)O + CCCCOC(C)=O
viscosity [mPa·s], 101 kPa
Conditions	298.15 K	313.15 K
x2 = 0.1025	1.003	0.811
x2 = 0.2035	0.947	0.767
x2 = 0.2989	0.887	0.724
x2 = 0.3998	0.842	0.685
x2 = 0.4907	0.811	0.671
x2 = 0.6449	0.77	0.63
x2 = 0.8015	0.729	0.599
x2 = 0.8705	0.726	0.589
x2 = 0.8886	0.723	0.592
x2 = 0.9096	0.712	0.583
x2 = 0.9315	0.698	0.58
x2 = 0.9427	0.698	0.58
x2 = 0.9605	0.696	0.574
x2 = 0.9779	0.686	0.563

CCNc1ccccc1 + CCCCOCCO
viscosity [mPa·s], 101.3 kPa
Conditions	x2 = 0.1017	x2 = 0.2027	x2 = 0.3026	x2 = 0.398	x2 = 0.5004	x2 = 0.5947	x2 = 0.701	x2 = 0.7971	x2 = 0.8933
298 K	2.077	2.172	2.259	2.361	2.486	2.573	2.686	2.758	2.786
303 K	1.774	1.855	1.929	2.039	2.14	2.214	2.313	2.38	2.404
308 K	1.59	1.662	1.725	1.801	1.889	1.961	2.048	2.111	2.145
313 K	1.43	1.498	1.537	1.615	1.693	1.746	1.824	1.883	1.91
318 K	1.298	1.358	1.383	1.443	1.51	1.552	1.616	1.674	1.696

ClCCl + CCCCOCCO
298.15 K, 101.3 kPa
Conditions	viscosity [mPa·s]
x1 = 0.0185	2.77
x2 = 0.0035	0.408
x2 = 0.0112	0.413
x2 = 0.0303	0.43
x2 = 0.0521	0.451
x2 = 0.1008	0.503
x2 = 0.1533	0.578
x2 = 0.2175	0.671
x2 = 0.293	0.807
x2 = 0.362	0.943
x2 = 0.4346	1.11
x2 = 0.5707	1.482
x2 = 0.6642	1.753
x2 = 0.7875	2.148
x2 = 0.9049	2.525

ClCCl + CCCCn1cc[n+](C)c1.F[B-](F)(F)F
Conditions	viscosity [mPa·s]
298.15 K, 101 kPa, x1 = 0.1	84.5

ClCCl + CCCCn1cc[n+](C)c1.F[P-](F)(F)(F)(F)F
298.15 K, 101 kPa
Conditions	viscosity [mPa·s]
x1 = 0.2451	88.7
x1 = 0.6462	9.51

COCC(C)OCC(C)OC (stereo unspecified) + CCCO
298.15 K, 101 kPa
Conditions	viscosity [mPa·s]
x1 = 0.0008	1.955
x1 = 0.0409	1.775

ClCCCl + CCCO
101 kPa
Conditions	viscosity [mPa·s]
293.15 K, x2 = 0.9052	1.795
298.15 K, x2 = 0.614	1.035
303.15 K, x2 = 0.1182	0.6969
303.15 K, x2 = 0.2163	0.6888
303.15 K, x2 = 0.5579	0.9007
303.15 K, x2 = 0.6721	1.034
303.15 K, x2 = 0.836	1.328
313.15 K, x2 = 0.1182	0.6089
313.15 K, x2 = 0.2163	0.6167
313.15 K, x2 = 0.326	0.6293
313.15 K, x2 = 0.5579	0.7563
313.15 K, x2 = 0.6721	0.8514
313.15 K, x2 = 0.836	1.071
323.15 K, x2 = 0.1182	0.5483
323.15 K, x2 = 0.2163	0.5488
323.15 K, x2 = 0.326	0.5542
323.15 K, x2 = 0.5579	0.6484
323.15 K, x2 = 0.6721	0.721
323.15 K, x2 = 0.836	0.8872

ClCCl + CCCO
Conditions	viscosity [mPa·s]
298.15 K, 101 kPa, x2 = 0.05	0.48
298.15 K, 101 kPa, x2 = 0.1	0.535
298.15 K, 101 kPa, x2 = 0.1002	0.44
298.15 K, 101 kPa, x2 = 0.15	0.588
298.15 K, 101 kPa, x2 = 0.1991	0.487
298.15 K, 101 kPa, x2 = 0.2	0.639
298.15 K, 101 kPa, x2 = 0.2496	0.496
298.15 K, 101 kPa, x2 = 0.25	0.689
298.15 K, 101 kPa, x2 = 0.2978	0.528
298.15 K, 101 kPa, x2 = 0.3	0.74
298.15 K, 101 kPa, x2 = 0.35	0.792
298.15 K, 101 kPa, x2 = 0.3938	0.6
298.15 K, 101 kPa, x2 = 0.4	0.846
298.15 K, 101 kPa, x2 = 0.45	0.904
298.15 K, 101 kPa, x2 = 0.4603	0.668
298.15 K, 101 kPa, x2 = 0.498	0.716
298.15 K, 101 kPa, x2 = 0.5	0.966
298.15 K, 101 kPa, x2 = 0.55	1.032
298.15 K, 101 kPa, x2 = 0.589	0.843
298.15 K, 101 kPa, x2 = 0.6	1.104
298.15 K, 101 kPa, x2 = 0.65	1.182
298.15 K, 101 kPa, x2 = 0.6943	1.043
298.15 K, 101 kPa, x2 = 0.7	1.266
298.15 K, 101 kPa, x2 = 0.75	1.357
298.15 K, 101 kPa, x2 = 0.7977	1.289
298.15 K, 101 kPa, x2 = 0.8	1.455
298.15 K, 101 kPa, x2 = 0.85	1.56
298.15 K, 101 kPa, x2 = 0.8955	1.57
298.15 K, 101 kPa, x2 = 0.9	1.673
298.15 K, 101 kPa, x2 = 0.95	1.794
303.15 K, 101.3 kPa, x2 = 0.0434	0.401
303.15 K, 101.3 kPa, x2 = 0.0863	0.4085
303.15 K, 101.3 kPa, x2 = 0.1371	0.423
303.15 K, 101.3 kPa, x2 = 0.1943	0.445
303.15 K, 101.3 kPa, x2 = 0.2863	0.4936
303.15 K, 101.3 kPa, x2 = 0.3859	0.5655
303.15 K, 101.3 kPa, x2 = 0.4983	0.6748
303.15 K, 101.3 kPa, x2 = 0.5806	0.7794
303.15 K, 101.3 kPa, x2 = 0.7402	1.059
303.15 K, 101.3 kPa, x2 = 0.828	1.257
303.15 K, 101.3 kPa, x2 = 0.9016	1.447
303.15 K, 101.3 kPa, x2 = 0.9307	1.606
303.15 K, 101.3 kPa, x2 = 0.9459	1.57
303.15 K, 101.3 kPa, x2 = 0.95	1.643
